Results from patent publication US9718785B2, “1,3-Disubstituted cyclopentane derivatives” (MERCK PATENT GMBH, priority 2013, dated 2017).

target: T1, human recombinant full-length fatty acid synthase (FASN) (Homo sapiens, UniProt P49327); experiment: Biochemical activity testing of human fatty acid synthase FASN (NADPH fluorescence intensity enzyme assay); conditions: at 3 μM
T1 construct: 40 nM human recombinant full-length fatty acid synthase (produced in-house in SF9 cells); made in house; host or cells: SF9 insect cells
T1 sequence (P49327 whole entry): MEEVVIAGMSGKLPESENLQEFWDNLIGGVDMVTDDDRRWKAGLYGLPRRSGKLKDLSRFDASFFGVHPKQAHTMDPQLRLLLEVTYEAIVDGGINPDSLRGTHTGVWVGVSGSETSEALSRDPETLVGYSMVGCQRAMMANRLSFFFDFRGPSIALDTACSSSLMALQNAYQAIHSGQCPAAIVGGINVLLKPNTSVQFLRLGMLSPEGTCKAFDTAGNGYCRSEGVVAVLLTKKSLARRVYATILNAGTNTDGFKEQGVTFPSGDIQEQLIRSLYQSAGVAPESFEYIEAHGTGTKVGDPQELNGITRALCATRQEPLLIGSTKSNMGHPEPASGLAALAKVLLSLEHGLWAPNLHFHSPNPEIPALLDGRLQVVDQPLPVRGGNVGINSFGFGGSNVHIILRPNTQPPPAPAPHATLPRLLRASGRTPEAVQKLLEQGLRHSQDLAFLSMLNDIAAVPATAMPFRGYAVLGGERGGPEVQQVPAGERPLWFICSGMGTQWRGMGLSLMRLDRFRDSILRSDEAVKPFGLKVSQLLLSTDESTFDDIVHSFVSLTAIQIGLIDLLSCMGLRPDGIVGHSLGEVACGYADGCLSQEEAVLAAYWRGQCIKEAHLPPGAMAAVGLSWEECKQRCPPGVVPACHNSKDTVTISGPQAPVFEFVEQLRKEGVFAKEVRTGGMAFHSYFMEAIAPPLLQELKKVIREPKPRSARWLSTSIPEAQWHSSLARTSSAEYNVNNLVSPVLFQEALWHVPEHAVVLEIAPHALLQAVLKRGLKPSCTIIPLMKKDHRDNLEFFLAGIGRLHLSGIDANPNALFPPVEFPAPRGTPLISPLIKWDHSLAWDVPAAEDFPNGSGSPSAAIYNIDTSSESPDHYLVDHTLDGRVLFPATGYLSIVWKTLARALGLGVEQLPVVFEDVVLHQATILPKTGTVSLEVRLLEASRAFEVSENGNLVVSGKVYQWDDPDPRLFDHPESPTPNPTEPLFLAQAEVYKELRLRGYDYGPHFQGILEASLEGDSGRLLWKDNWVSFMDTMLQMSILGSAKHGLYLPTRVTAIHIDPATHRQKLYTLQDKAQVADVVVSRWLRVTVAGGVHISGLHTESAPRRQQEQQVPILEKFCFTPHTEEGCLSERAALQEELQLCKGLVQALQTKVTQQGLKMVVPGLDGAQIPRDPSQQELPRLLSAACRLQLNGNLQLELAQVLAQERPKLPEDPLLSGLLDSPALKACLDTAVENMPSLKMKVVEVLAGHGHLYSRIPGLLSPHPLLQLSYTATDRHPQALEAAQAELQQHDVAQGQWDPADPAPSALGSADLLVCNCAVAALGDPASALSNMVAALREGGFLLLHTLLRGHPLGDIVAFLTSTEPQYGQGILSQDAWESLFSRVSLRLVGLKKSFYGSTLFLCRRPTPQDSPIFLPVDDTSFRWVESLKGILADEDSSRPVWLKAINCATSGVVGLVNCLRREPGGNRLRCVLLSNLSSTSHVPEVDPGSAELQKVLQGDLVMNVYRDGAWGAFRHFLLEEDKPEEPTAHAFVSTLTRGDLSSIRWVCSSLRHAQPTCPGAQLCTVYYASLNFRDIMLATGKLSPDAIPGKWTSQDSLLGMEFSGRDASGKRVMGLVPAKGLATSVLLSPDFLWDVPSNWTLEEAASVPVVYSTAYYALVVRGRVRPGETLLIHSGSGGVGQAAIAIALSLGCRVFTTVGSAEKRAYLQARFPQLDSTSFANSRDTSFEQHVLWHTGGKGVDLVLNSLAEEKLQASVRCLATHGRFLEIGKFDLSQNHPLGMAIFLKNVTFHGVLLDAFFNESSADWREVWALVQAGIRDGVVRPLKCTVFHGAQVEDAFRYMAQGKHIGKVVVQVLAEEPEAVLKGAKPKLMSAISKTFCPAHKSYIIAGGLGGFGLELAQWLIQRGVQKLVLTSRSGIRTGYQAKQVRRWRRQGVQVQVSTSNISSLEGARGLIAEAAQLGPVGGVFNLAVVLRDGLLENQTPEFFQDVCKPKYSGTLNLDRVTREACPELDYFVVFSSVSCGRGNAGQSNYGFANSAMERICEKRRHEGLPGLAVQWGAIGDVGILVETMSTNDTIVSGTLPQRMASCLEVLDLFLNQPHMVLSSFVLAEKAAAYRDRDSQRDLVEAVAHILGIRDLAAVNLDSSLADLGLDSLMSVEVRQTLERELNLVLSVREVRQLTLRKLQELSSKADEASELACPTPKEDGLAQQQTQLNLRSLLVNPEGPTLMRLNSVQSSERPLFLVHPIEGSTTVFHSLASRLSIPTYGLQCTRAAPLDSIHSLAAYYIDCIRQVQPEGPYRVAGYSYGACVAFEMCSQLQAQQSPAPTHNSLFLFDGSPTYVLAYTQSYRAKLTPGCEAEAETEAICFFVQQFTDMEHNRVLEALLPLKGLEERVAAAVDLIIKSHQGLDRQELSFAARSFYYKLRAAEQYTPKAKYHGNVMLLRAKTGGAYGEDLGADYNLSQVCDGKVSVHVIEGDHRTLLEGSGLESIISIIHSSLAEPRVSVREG
In short: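 Recombinant full-length human FASN from SF9 cells, preincubated with compound (10 concentrations, top 30 μM final, 1% DMSO) and NADPH ≥15 min at room temperature, pH 7.0. Acetyl-CoA and malonyl-CoA added; NADPH fluorescence (340/460 nm) read before and after 30 min. IC50 from signal difference, normalised to uninhibited reaction and GSK837149A zero control.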

Q: How did the “Inhibition of FASN (enzyme assay)” value turn out when `CC1(NC(=O)[C@H]2CC[C@@H](n3cncc3-c3ccc(-c4cnc5[nH]ccc5c4)cc3)C2)CC1` [Compound A5, (1S,3R)-3-{5-[4-(1H-pyrrolo[2,3-b]pyridin-5-yl)-phenyl]-imidazol-1-yl}-cyclopentanecarboxylic acid (1-methyl-cyclopropyl)-amide] was run?
A: Inhibition: −44%

same assay, conditions: human recombinant FASN, enzyme assay

Q: For `CCNC(=O)[C@H]1CC[C@@H](n2cnnc2-c2ccc(-c3ccc(C#N)cc3)cc2)C1` [Compound A32, (1S,3R)-3-[3-(4′-cyano-biphenyl-4-yl)-[1,2,4]triazol-4-yl]-cyclopentanecarboxylic acid ethylamide], which IC50 is on record?
A: < 300 nM

Q: `CCNC(=O)[C@H]1CC[C@@H](n2nncc2-c2ccc(-c3ccc(C(N)=O)cc3)cc2)C1` [Compound A99, 4′-[3-((1R,3S)-3-Ethylcarbamoyl-cyclopentyl)-3H-[1,2,3]triazol-4-yl]-biphenyl-4-carboxylic acid amide] was tested. Which IC50 did it give?
A: 300 to 3000 nM

Q: With `CCC(=O)N[C@H]1CC[C@@H](n2nncc2-c2ccc(-c3nc4ccc(Cl)cc4o3)cn2)C1` [Compound A114, N-((1S,3R)-3-{5-[5-(6-Chloro-benzoxazol-2-yl)-pyridin-2-yl]-[1,2,3]triazol-1-yl}-cyclopentyl)-propionamide] as the compound, how does the IC50 read?
A: 300 to 3000 nM

Q: How did the IC50 turn out when `CCC(=O)N[C@H]1CC[C@@H](n2cncc2-c2ccc(-c3cccc4[nH]ncc34)cc2)C1` [Compound A22, N-((1S,3R)-3-{5-[4-(1H-indazol-4-yl)-phenyl]-imidazol-1-yl}-cyclopentyl)-propionamide] was run?
A: < 300 nM

Q: With `CCC(=O)N[C@H]1CC[C@@H](n2nncc2-c2ccc(-c3nc4ccccc4o3)cn2)C1` [Compound A115, N-{(1S,3R)-3-[5-(5-Benzoxazol-2-yl-pyridin-2-yl)-[1,2,3]triazol-1-yl]-cyclopentyl}-propionamide] as the compound, how does the IC50 read?
A: < 300 nM

Q: Which IC50 does the source give for `CCC(=O)N[C@H]1CC[C@@H](n2nncc2-c2ccc(-c3ccc(Cl)cc3)cc2)C1` [Compound A25, N-{(1S,3R)-3-[5-(4′-chloro-biphenyl-4-yl)-[1,2,3]triazol-1-yl]-cyclopentyl}-propionamide] here?
A: < 300 nM

Q: How did the IC50 turn out when `CC1(NC(=O)[C@H]2CC[C@@H](n3cncc3-c3ccc(-c4nc5ccccc5o4)cc3)C2)CC1` [Compound A4, (1S,3R)-3-[5-(4-benzoxazol-2-yl-phenyl)-imidazol-1-yl]-cyclopentanecarboxylic acid (1-methyl-cyclopropyl)-amide] was run?
A: < 300 nM

Q: Which IC50 does the source give for `CCNC(=O)[C@H]1CC[C@@H](n2nncc2-c2ccc(-c3ccc(C#N)c(F)c3)cc2)C1` [Compound A105, (1S,3R)-3-[5-(4′-Cyano-3′-fluoro-biphenyl-4-yl)-[1,2,3]triazol-1-yl]-cyclopentanecarboxylic acid ethylamide] here?
A: < 300 nM

Q: For `CCC(=O)N[C@H]1CC[C@@H](n2nncc2-c2ccc(-c3cccc4[nH]ncc34)cc2)C1` [Compound A26, N-((1S,3R)-3-{5-[4-(1H-indazol-4-yl)-phenyl]-[1,2,3]triazol-1-yl}-cyclopentyl)-propionamide], which IC50 is on record?
A: < 300 nM

Q: How did the IC50 turn out when `CCC(=O)N[C@H]1CC[C@@H](n2nncc2-c2ccc(-c3ccc4[nH]ccc4c3F)c(F)c2)C1` [Compound A119, N-((1S,3R)-3-{5-[3-Fluoro-4-(4-fluoro-1H-indol-5-yl)-phenyl]-[1,2,3]triazol-1-yl}-cyclopentyl)-propionamide] was run?
A: < 300 nM

Q: Which IC50 does the source give for `CCC(=O)N[C@H]1CC[C@@H](n2nncc2-c2ccc(-c3cc4cc[nH]c4cc3F)c(F)c2)C1` [Compound A120, N-((1S,3R)-3-{5-[3-Fluoro-4-(6-fluoro-1H-indol-5-yl)-phenyl]-[1,2,3]triazol-1-yl}-cyclopentyl)-propionamide] here?
A: < 300 nM

Q: With `CCC(=O)N[C@H]1CC[C@@H](n2cnnc2-c2ccc(-c3ccc4ncsc4c3)cc2)C1` [Compound A43, N-{(1S,3R)-3-[3-(4-benzothiazol-6-yl-phenyl)-[1,2,4]triazol-4-yl]-cyclopentyl}-propionamide] as the compound, how does the IC50 read?
A: < 300 nM

Q: How did the IC50 turn out when `CCC(=O)N[C@H]1CC[C@@H](n2cnnc2-c2ccc(-c3ccc(Cl)c(F)c3)cc2)C1` [Compound A95, N-{(1S,3R)-3-[3-(4′-Chloro-3′-fluoro-biphenyl-4-yl)[1,2,4]triazol-4-yl]-cyclopentyl}-propionamide] was run?
A: < 300 nM
